Consider three compounds from paper PMC10454375, “Cell-Impermeable Inhibitors Confirm That Intracellular Human Transglutaminase 2 Is Responsible for the Transglutaminase-Associated Cancer Phenotype” (International Journal of Molecular Sciences, 2023).

By kinact/KI is commonly meant the second-order rate constant of inactivation. The term kinact denotes the rate constant of inactivation at saturating inhibitor.

The target in data set [1] is T1, Recombinant human TG2 (Homo sapiens, UniProt P21980).
T1 construct: GST (with PSP protease site, plasmid pGST-PSP-rhTG2) (N, cleaved yes); made in house; host or cells: E. coli (BL21)
T1 sequence (P21980 1-687): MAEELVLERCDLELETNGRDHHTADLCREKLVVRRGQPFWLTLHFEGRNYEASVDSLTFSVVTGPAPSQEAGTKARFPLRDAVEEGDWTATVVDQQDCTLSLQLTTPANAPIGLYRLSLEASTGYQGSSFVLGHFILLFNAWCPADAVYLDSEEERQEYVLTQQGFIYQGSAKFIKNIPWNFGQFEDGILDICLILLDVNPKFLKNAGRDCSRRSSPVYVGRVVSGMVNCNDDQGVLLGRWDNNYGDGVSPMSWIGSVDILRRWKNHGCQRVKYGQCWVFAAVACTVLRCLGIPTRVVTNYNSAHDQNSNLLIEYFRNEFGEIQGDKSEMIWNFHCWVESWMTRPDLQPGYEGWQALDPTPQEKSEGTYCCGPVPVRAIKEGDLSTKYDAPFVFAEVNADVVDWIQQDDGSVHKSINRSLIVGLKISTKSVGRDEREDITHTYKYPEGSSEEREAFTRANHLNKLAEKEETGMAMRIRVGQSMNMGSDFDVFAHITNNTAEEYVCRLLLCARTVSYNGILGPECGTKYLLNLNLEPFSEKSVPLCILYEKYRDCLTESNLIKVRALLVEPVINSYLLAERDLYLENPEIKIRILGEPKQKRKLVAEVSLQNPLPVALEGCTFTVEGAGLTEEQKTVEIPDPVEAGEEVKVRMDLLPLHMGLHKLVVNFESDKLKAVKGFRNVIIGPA
Also noted: method as in PMID 36846375. The following applies: previous lead compound, Figure 1; cited from earlier work.

The nature of data set [2]: Solubility in aqueous solutions. It is filed as physicochemical. The following applies: read-out: concentration above which decreased solubility in aqueous solutions was displayed.
Data set [3] concerns the target T1, Recombinant human TG2. The data set is described as follows: rhTG2 inhibition assay, continuous chromogenic substrate AL5, Kitz and Wilson conditions. The class given is biochemical. The following applies: for kinact / Ki: * compounds fitted to double reciprocal model, 25 °C, pH 6.9, 100 µM AL5; for kinact/KI: * double reciprocal model, ** lowest concentrations of saturation plot fitted to a linear model; for Ki: irreversible inhibition. The text has this:
Relative to the original scaffold, we expected the potency of these novel chemical biology tools to decrease slightly, due to the additional bulk incorporated on the glutamate sidechain. Although we expected the sidechain moiety to be directed into bulk solvent, we were concerned that its mass and charge would disfavor the binding interaction. Therefore, we kinetically characterized these probes as rigorously as possible, in order to determine their relative affinity and reactivity. For most inhibitors we have made, including the parent inhibitor AA9 (Figure 1), we have been able to measure kinetic parameters under Kitz and Wilson conditions. This experimental approach is based on the use of a continuous activity assay and the measurement of first-order rate constants for the time-dependent inactivation of enzyme (see Figure 2A and Figures S1–S5 in Supplementary Materials). The dependence of these observed rate constants (kobs) on the inhibitor concentration divided by alpha ([I]/α) can then be fitted to a hyperbolic saturation model where the upper plateau represents the rate constant of inactivation (kinact), and the concentration providing half the rate constant of inactivation represents KI (Figure 2B). […] To compensate for this, the overall efficiency of the inhibitor (kinact/KI) can be derived from the slope of the linear region of the saturation plot (Figure 2C). To gauge the individual parameters, a double reciprocal fitting was also employed where KI can be calculated from the x-axis intercept and kinact can be calculated from the y-axis intercept (Figure 2D).
Recombinant human TG2 was expressed and purified using previously published protocols. The inhibition was monitored using a continuous chromogenic substrate AL5 [38] under Kitz and Wilson conditions. In brief, 125 µL of assay buffer composed of 111.11 mM MOPS, 15.56 CaCl2 pH 6.9 was added to a 1.5 mL Eppendorf tube to achieve final assay concentrations of 50 mM MOPS and […] CaCl2. To the tube was then added the respective concentration of inhibitor from an aqueous working stock (<5% DMSO final conditions). Various volumes of water were then added to ensure the final volumes were equal. The AL5 substrate was added to the Eppendorf tube as a 5 µL 5.56 mM solution in DMSO to obtain a final assay concentration of 100 µM. A 96-well polystyrene microplate then had 180 µL of the assay mixture added to it. The enzymatic reaction was finally initiated by addition of 20 µL 5 mU prediluted TG2 in assay buffer using a multichannel pipette. The reaction was monitored at 405 nm using a BioTek Synergy 4 plate reader for 20 min at 25 °C. A positive control with no inhibitor and a blank with no enzyme nor inhibitor were also included. The blank subtracted kinetic curves were then analyzed. The observed first-order rate constants of inactivation were gathered through a one-phase association model using the GraphPad software package. The rate constants were then fit to various models to elucidate the inhibition parameters. If saturation was achieved, they were fit to a saturation model versus the inhibitor concentration divided by alpha (where α=1+Substrate/Km ). A linear regression of the linear region of this saturation fitting was calculated to obtain a ratio of kinact/KI. A further double reciprocal model was used if saturation could not be observed due to the limitations in sensitivity of the assay or if solubility issues were present.

The target of another data set is T2, GST-TG2 fusion protein (Homo sapiens, UniProt P21980).
T2 construct: made in house; host or cells: BL21 E. coli (crude lysate)
T2 sequence (P21980 with tags, fused parts or gaps): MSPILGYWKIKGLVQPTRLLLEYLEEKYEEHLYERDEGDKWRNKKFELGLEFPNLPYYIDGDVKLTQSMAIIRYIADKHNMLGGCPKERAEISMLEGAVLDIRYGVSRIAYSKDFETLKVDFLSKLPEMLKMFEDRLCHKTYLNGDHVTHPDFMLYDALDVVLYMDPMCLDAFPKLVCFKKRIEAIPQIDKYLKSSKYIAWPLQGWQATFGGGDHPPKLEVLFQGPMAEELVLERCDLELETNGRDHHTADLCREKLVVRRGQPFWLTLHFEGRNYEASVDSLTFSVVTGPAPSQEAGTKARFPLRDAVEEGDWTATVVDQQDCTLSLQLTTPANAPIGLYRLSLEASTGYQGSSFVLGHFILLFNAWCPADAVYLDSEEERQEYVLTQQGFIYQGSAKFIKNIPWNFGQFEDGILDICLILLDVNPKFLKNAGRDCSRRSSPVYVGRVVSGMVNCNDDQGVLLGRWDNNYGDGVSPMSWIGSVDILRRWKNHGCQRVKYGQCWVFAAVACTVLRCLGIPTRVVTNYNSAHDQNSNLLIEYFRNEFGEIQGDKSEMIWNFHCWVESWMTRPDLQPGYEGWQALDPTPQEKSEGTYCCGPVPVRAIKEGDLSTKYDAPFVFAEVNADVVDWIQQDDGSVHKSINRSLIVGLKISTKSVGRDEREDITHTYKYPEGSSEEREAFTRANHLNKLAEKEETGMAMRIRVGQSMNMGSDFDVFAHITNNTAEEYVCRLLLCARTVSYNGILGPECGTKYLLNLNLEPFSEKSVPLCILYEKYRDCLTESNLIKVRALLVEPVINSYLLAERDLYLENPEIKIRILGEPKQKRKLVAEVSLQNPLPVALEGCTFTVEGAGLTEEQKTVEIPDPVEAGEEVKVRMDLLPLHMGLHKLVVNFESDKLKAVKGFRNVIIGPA
The data set is described as follows: Pull-down of rhTG2 from E. coli lysate (CuAAC with desthiobiotin-PEG3-azide, streptavidin resin). The class given is binding. The following applies: E. coli lysate overexpressing GST-rhTG2; elution with 4 mM biotin. The procedure: As a proof of concept, previously described BL21 E. coli cells were transformed with a plasmid (pGST-PSP-rhTG2) to induce overexpression of recombinant human TG2 (rhTG2) as a GST fusion protein [47]. The bacterial cells were then lysed and exposed to the propargylated inhibitor 31 to allow for labelling. A subsequent CuAAC reaction was then performed in the same cell lysate to incorporate the desthiobitoin-PEG3-azide into labelled TG2. The lysate was then passed over streptavidin resin to isolate all proteins that had reacted with inhibitor 31. These proteins were then eluted from the resin using a solution of 4 mM biotin, and the eluant was analyzed by SDS-PAGE. […] This validates not only the TG2-selectivity of probe 31, but also the efficiency of the click reaction of the GST-TG2-31 adduct, allowing for the isolation of TG2 from cell lysate in a very mild manner.
A total of 400 µL of the aforementioned E. coli cell lysate combined with 133 µL of a solution of 75 µM 31 was added to a 1.5 mL Eppendorf tube. The labelling was allowed to occur for 25 min. Totals of 25 µL of a solution of 500 µM azide-PEG3-desthiobiotin 32 and 500 µM cupric sulfate in 20 mM HEPES at pH 8.0 were added to the tube. To initiate the click reaction, 100 µL of 150 µM sodium ascorbate solution in mQ H2O was added and gently rocked for 2.5 h at room temperature. […]

Like-named read-outs stand apart in the source and are kept apart here.

On to `C=CC(=O)NCCCC[C@H](NC(=O)OCc1ccccc1)C(=O)N1CCN(C(=O)c2cccc3ccccc23)CC1` [AA9], for which, on Recombinant human TG2 [1], the second-order inactivation constant (kinact/KI) is 1670 M⁻¹ s⁻¹.

As for `C=CC(=O)NCCCC[C@H](NC(=O)OCc1ccccc1)C(=O)N1CCN(C(=O)[C@H](CCC(=O)NCCCCCNC(=O)c2cc3ccc(N(CC)CC)cc3oc2=O)NC(=O)c2cccc3ccccc23)CC1` [Compound 22], the solubility in data set [2] was > 25 µM. On Recombinant human TG2 [3], the kinact is 0.004 s⁻¹, the kinact/KI was 3130 M⁻¹ s⁻¹ and the Ki was 1.3 ± 1.1 µM.

Turning to `C#CCNC(=O)CC[C@H](NC(=O)c1cccc2ccccc12)C(=O)N1CCN(C(=O)[C@H](CCCCNC(=O)C=C)NC(=O)OCc2ccccc2)CC1` [Compound 31], the “proteins isolated by pull-down (TG2 selectivity)” value at GST-TG2 fusion protein is on record as “the only protein efficiently isolated in this experiment corresponds to the GST-TG2 fusion protein”. In addition, at Recombinant human TG2 [3], the kinact was 0.00767 s⁻¹, the kinact/KI was 8280 M⁻¹ s⁻¹ and the Ki turned out to be 0.9 ± 0.5 µM.
